Laboratory results from publication PMC11769294, “(E)-1-(3-(3-Hydroxy-4-Methoxyphenyl)-1-(3,4,5-Trimethoxyphenyl)allyl)-1H-1,2,4-Triazole and Related Compounds: Their Synthesis and Biological Evaluation as Novel Antimitotic Agents Targeting Breast Cancer” (Pharmaceuticals, 2025).

Experiments:
Assay type in all cases: cell-based, human
[1] = test system: NCI-H522 (Non-Small Cell Lung Cancer); assay: NCI60 screen (SRB); conditions: one dose 10 µM, 48 h
[2] = test system: HL-60 (TB) (Leukemia); assay: NCI60 screen (SRB); conditions: HL-60 (TB); one dose 10 µM; 48 h
[3] = test system: leukemia panel; assay: NCI60 screen (SRB), panel mean; conditions: one dose 10 µM, 48 h
[4] = test system: SNB-19 (CNS Cancer); assay: NCI60 screen (SRB); conditions: one dose 10 µM, 48 h
[5] = test system: COLO 205 (Colon Cancer); assay: NCI60 screen (SRB); conditions: one dose 10 µM, 48 h
[6] = test system: RPMI-8226 (Leukemia); assay: NCI60 screen (SRB); conditions: one dose 10 µM, 48 h
[7] = test system: IGROV1 (Ovarian Cancer); assay: NCI60 screen (SRB); conditions: one dose 10 µM, 48 h
[8] = test system: HOP-62 (Non-Small Cell Lung Cancer); assay: NCI60 screen (SRB); conditions: one dose 10 µM, 48 h
[9] = test system: SK-OV-3 (Ovarian Cancer); assay: NCI60 screen (SRB); conditions: one dose 10 µM, 48 h
[10] = test system: EKVX (Non-Small Cell Lung Cancer); assay: NCI60 screen (SRB); conditions: one dose 10 µM, 48 h
[11] = test system: UACC-62 (Melanoma); assay: NCI60 screen (SRB); conditions: one dose 10 µM, 48 h
[12] = test system: 786-0 (Renal Cancer); assay: NCI60 screen (SRB); conditions: one dose 10 µM, 48 h
[13] = test system: UO-31 (Renal Cancer); assay: NCI60 screen (SRB); conditions: one dose 10 µM, 48 h
[14] = test system: HCC-2998 (Colon Cancer); assay: NCI60 screen (SRB); conditions: one dose 10 µM, 48 h
[15] = test system: A498 (Renal Cancer); assay: NCI60 screen (SRB); conditions: one dose 10 µM, 48 h
[16] = test system: U251 (CNS Cancer); assay: NCI60 screen (SRB); conditions: one dose 10 µM, 48 h
[17] = test system: SN12C (Renal Cancer); assay: NCI60 screen (SRB); conditions: one dose 10 µM, 48 h
[18] = test system: NCI 60 cancer cell line panel; assay: NCI60 screen (SRB), all cell lines; conditions: over the 60-cell line panel; one dose 10 µM; 48 h
[19] = test system: T-47D (Breast Cancer); assay: NCI60 screen (SRB); conditions: one dose 10 µM, 48 h
[20] = test system: OVCAR-3 (Ovarian Cancer); assay: NCI60 screen (SRB); conditions: one dose 10 µM, 48 h
[21] = test system: OVCAR-4 (Ovarian Cancer); assay: NCI60 screen (SRB); conditions: one dose 10 µM, 48 h
[22] = test system: DU-145 (Prostate Cancer); assay: NCI60 screen (SRB); conditions: one dose 10 µM, 48 h
[23] = test system: SK-MEL-5 (Melanoma); assay: NCI60 screen (SRB); conditions: one dose 10 µM, 48 h
[24] = test system: TK-10 (Renal Cancer); assay: NCI60 screen (SRB); conditions: one dose 10 µM, 48 h
[25] = test system: PC-3 (Prostate Cancer); assay: NCI60 screen (SRB); conditions: one dose 10 µM, 48 h
[26] = test system: MALME-3M (Melanoma); assay: NCI60 screen (SRB); conditions: one dose 10 µM, 48 h
[27] = test system: M14 (Melanoma); assay: NCI60 screen (SRB); conditions: one dose 10 µM, 48 h
[28] = test system: MDA-MB-231/ATCC (Breast Cancer); assay: NCI60 screen (SRB); conditions: one dose 10 µM, 48 h
[29] = test system: HT29 (Colon Cancer); assay: NCI60 screen (SRB); conditions: one dose 10 µM, 48 h
[30] = test system: LOX IMVI (Melanoma); assay: NCI60 screen (SRB); conditions: one dose 10 µM, 48 h

Q: What does the source list for `COc1ccc(C2CC(n3ccnc3)c3cc(OC)c(OC)c(OC)c32)cc1O` (stereo not drawn) [Compound 27a, 5-(3-(1H-Imidazol-1-yl)-5,6,7-trimethoxy-2,3-dihydro-1H-inden-1-yl)-2-methoxyphenol]?
A: growth percent [1]: 50.13%; growth percent [2]: 83.57%; mean growth percentage [3]: 73.2%; growth percent [4]: 93.73%; growth percent [5]: 106.99%; growth percent [6]: 94.65%; growth percent [7]: 82.43%; growth percent [8]: 80.77%; growth percent [9]: 86.31%; growth percent [10]: 100.83%; growth percent [11]: 65.53%; growth percent [12]: 91.67%; growth percent [13]: 79.93%; growth percent [14]: 99.22%; growth percent [15]: 88.34%; growth percent [16]: 80.36%; growth percent [17]: 104.36%; mean growth percent [18]: 79.2%; growth percent [19]: 94.34%; growth percent [20]: 57.06%; growth percent [21]: 100.34%; growth percent [22]: 102.37%; growth percent [23]: 53.15%; growth percent [24]: 101.23%; growth percent [25]: 60.69%; growth percent [26]: 73.18%; growth percent [27]: 73.08%; growth percent [28]: 81.01%; growth percent [29]: 101.76%; growth percent [30]: 86.38%

Q: How did the growth percent [1] turn out when `COc1cc(/C=C/C(/C=C/c2cc(OC)c(OC)c(OC)c2)n2ccnc2)cc(OC)c1OC` [Compound 30, 1-((1E,4E)-1,5-bis(3,4,5-trimethoxyphenyl)penta-1,4-dien-3-yl)-1H-imidazole] was run?
A: Its growth percent is 64.75%.

Q: And the growth percent [2]?
A: Its growth percent is 70.60%.

Q: And the mean growth percentage [3]?
A: The mean growth percentage was 60.5%.

Q: And the growth percent [4]?
A: The growth percent was 89.08%.

Q: And the growth percent [5]?
A: Its growth percent is 99.42%.

Q: And the growth percent [6]?
A: The growth percent was 60.48%.

Q: What about the growth percent [7] of the same compound?
A: Its growth percent is 78.02%.

Q: And the growth percent [8]?
A: Its growth percent is 84.91%.

Q: What about the growth percent [9] of the same compound?
A: The growth percent was 92.06%.

Q: And the growth percent [10]?
A: The growth percent was 94.43%.

Q: What about the growth percent [11] of the same compound?
A: Its growth percent is 68.23%.

Q: What about the growth percent [12] of the same compound?
A: Its growth percent is 95.20%.

Q: What about the growth percent [13] of the same compound?
A: Its growth percent is 66.56%.

Q: And the growth percent [14]?
A: Its growth percent is 99.87%.

Q: And the growth percent [15]?
A: The growth percent was 104.55%.

Q: What about the growth percent [16] of the same compound?
A: Its growth percent is 81.64%.

Q: What about the growth percent [17] of the same compound?
A: The growth percent was 84.52%.

Q: And the mean growth percent [18]?
A: Its mean growth percent is 81.3%.

Q: What about the growth percent [19] of the same compound?
A: Its growth percent is 77.54%.

Q: And the growth percent [20]?
A: The growth percent was 83.41%.

Q: What about the growth percent [21] of the same compound?
A: Its growth percent is 92.69%.

Q: And the growth percent [22]?
A: Its growth percent is 100.17%.

Q: And the growth percent [23]?
A: Its growth percent is 62.09%.

Q: What about the growth percent [24] of the same compound?
A: The growth percent was 115.50%.

Q: What about the growth percent [25] of the same compound?
A: The growth percent was 58.09%.

Q: And the growth percent [26]?
A: The growth percent was 93.80%.

Q: What about the growth percent [27] of the same compound?
A: The growth percent was 82.03%.

Q: What about the growth percent [28] of the same compound?
A: The growth percent was 76.21%.

Q: What about the growth percent [29] of the same compound?
A: The growth percent was 80.30%.

Q: And the growth percent [30]?
A: Its growth percent is 85.14%.
